Read-outs that look alike come from different tables or passages of the source.
Legend:
sigma receptors [1] = experiment: sigma receptor binding, [^3 H]di(2-tolyl)guanidine (DTG), guinea pig brain membranes; conditions: inhibition of binding at 10 μM; [^3 H]DTG approximately 4 nM, 25° C., 90 min
Protocol: (§1) Brain tissue was prepared from male Hartley guinea pigs (Hazelton Labs, Denver, Pa.) which were anesthetized with CO2 and sacrificed by decapitation. All animal care and use procedures were in accord with the "Guide for the Care and Use of Laboratory Animals" (NIH Publ. No. 86-23, 1985). Homogenization was performed in 10 volumes (wt/vol) of 0.32 M sucrose with a Brinkmann Polytron at setting 5, 30 sec. The homogenate was centrifuged at 900×g for 10 min at 4° C., and the supernatant was collected and centrifuged at 22,000×g for 20 min at 4° C. The pellet was resuspended in 10 volumes of Tris-HCl buffer (50 mm, pH 7.4), incubated at 37° C. for 30 min, and centrifuged at 22,000×g for 20 min at 4° C. Following this, the pellet was resuspended in Tris buffer and frozen in 5-10 mL aliquots corresponding to a tissue concentration of 100 mg/ml, at -70° C. Binding characteristics of the membranes were stable for at least one month when stored at -70° C.
On the day of the assay, membrane aliquots were thawed, resuspended in fresh Tris-HCl buffer and stored on ice until use. […]
Following addition of scintillation cocktail, samples were allowed to equilibrate for at least 4 hr. The amount of bound radioactivity was determined by liquid scintillation spectrometry using a Beckman LS 5000 TA liquid scintillation counter with an efficiency for tritium of approximately 60%. […]
(§2) Scatchard parameters and inhibition constants (Ki values) for the binding of test compounds were also calculated using the EBDA/LIGAND program (McPherson, J. Pharmacol. Meth. 1985, 14, 213-228), purchased from Elsevier/Biosoft, Inc. The Ki values are expressed as the mean or the mean ±SEM of at least two separate determinations performed in triplicate.

sigma receptors [2] = target: T1, sigma receptors (Cavia porcellus, UniProt Q60492); experiment: sigma receptor binding, [^3 H]-(+)-pentazocine, guinea pig brain membranes; conditions: for inhibition at 10 µM: 2.5 h, inhibition of binding at 10 μM, [^3 H]-(+)-pentazocine approximately 0.5 nM, read-out: [^3 H] (+)-Pentazocine Percent Inhibition
T1 construct: Brain tissue was prepared from male Hartley guinea pigs; from tissue; host or cells: guinea pig brain membranes
T1 sequence (Q60492 whole entry): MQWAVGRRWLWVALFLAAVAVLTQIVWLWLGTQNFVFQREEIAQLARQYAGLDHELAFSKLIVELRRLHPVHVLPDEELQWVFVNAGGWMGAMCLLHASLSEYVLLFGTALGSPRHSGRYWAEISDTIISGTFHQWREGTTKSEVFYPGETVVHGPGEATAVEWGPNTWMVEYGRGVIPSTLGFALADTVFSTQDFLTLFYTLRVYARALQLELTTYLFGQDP
Protocol: as §1
On the day of the assay, membrane aliquots were thawed, resuspended in fresh Tris-HCl buffer and stored on ice until use. Each assay tube contained 100 μL of [^3 H]-(+)-pentazocine at a final concentration of approximately 0.5 nM or 100 μL of [^3 H)di(2-tolyl)guanidine (DTG) at a final concentration of approximately 4 nM, 100 μL of various concentrations of the compounds of interest, 500 μL of the tissue suspension and 300 μL of buffer to a final assay volume of 1 mL and a final tissue concentration of approximately 8 mg/tube, corresponding to approximately 0.15 mg protein/tube. Non-specific binding was defined by addition of a final concentration of 1 μM haloperidol to blank tubes for [^3 H](+)-pentazocine assay or by addition of a final concentration of 10 μM haloperidol to blank tubes for [^3 H]DTG assay. All tubes were incubated at 37° C. for 150 min in the [^3 H](+) -pentazocine assay or at 25° C. for 90 min in the [^3 H]DTG assay before termination of the reaction by rapid filtration over Whatman GF/B glass fiber filters that were presoaked in a solution of 0.5% polyethyleneimine for at least 1 hr prior to use. Filters were washed with three 4 ml volumes of cold Tris-HCl buffer.
Following addition of scintillation cocktail, samples were allowed to equilibrate for at least 4 hr. The amount of bound radioactivity was determined by liquid scintillation spectrometry using a Beckman LS 5000 TA liquid scintillation counter with an efficiency for tritium of approximately 60%. The results are reported as a percent (%) inhibition of binding at 10 μM.
as §2

[3] = tested on: apomorphine-induced climbing; experiment: apomorphine-induced climbing assay; type: in vivo, mouse (male, Swiss-Webster); conditions: Mus musculus, ip; test compound i.p., apomorphine 5.5 mg/kg s.c.; rated 20-30 minutes post drug treatment; Dunnett's Test P<0.05; read-out: minimal effective dose (MED) for inhibition of apomorphine-induced climbing
Protocol: (§3) The compound of Example 4 was tested in vivo in the apomorphine-induced climbing assay and the apomorphine-induced stereotypy assay using the following procedures:
(§4) Male, Swiss-Webster mice (Taconic Farms, Germantown, N.Y.) weight 20-30 grams were grouped housed in colony facilities for a minimum of two days prior to testing. The colony facility was maintained on a 12 hour light/dark cycle (light: 0600-1800 hours) with water and Agway Prolab 100 rat chow available ad libitum. Each mouse was given an injection of test compound i.p. followed immediately by a s.c. injection of apomorphine 5.5 mg/kg or vehicle. All drugs were administered in a volume of 10 ml/kg body weight. The mice were then placed in individual cylindrical stainless steel climbing cages; 14.5 cm tall, 12 cm in diameter, with walls consisting of 1/16" O.D. bars spaced 0.8-1.0 cm apart, and were allowed to habituate to this environment for 20 minutes. […] Briefly, a (0) was scored for absence of any stereotypic behavior, infrequent stereotypic movements were scored as (1) , a (2) was scored for permanent sniffing and a score of (3) indicated intense and continuous stereotypic behavior. Treatment means for the 10 minute totals were calculated for climbing and stereotypy. […] A minimal effective dose (MED) for inhibition was determined for each parameter based on these analyses.

[4] = tested on: apomorphine-induced stereotypy; experiment: apomorphine-induced stereotypy assay; type: in vivo, mouse (male, Swiss-Webster); conditions: test compound i.p., apomorphine 5.5 mg/kg s.c.; rated 20-30 minutes post drug treatment
Protocol: as §3, §4

[5] = mean or mean ±SEM of at least two separate determinations performed in triplicate, 37° C., 150 min, read-out: [^3 H] (+)-Pentazocine Ki

| SMILES | inhibition at 10 µM (sigma receptors [2]; 37° C., 150 min) [%] | Ki (sigma receptors [2]; [5]) [µM] | further results |
| --- | --- | --- | --- |
| C[C@@H]1CCN(C)[C@@H](C)[C@]1(C)CCCO (relative stereo) [Example 1b, 3-(1,2,3,4-tetramethyl-3-piperidine)propanol] | 42 | – | [3H]DTG Percent Inhibition (sigma receptors [1]): 39 percent (%) |
| C[C@@H]1CCN(C)[C@@H](C)[C@]1(C)CCCOCC1CC1 (relative stereo) [Example 1c, 3-[3-(cyclopropylmethoxy)propyl]1,2,3,4-tetramethylpiperidine] | 94 | – | Ki (sigma receptors [2]): 0.197 ± 0.032 µM |
| C[C@@H]1CCN(Cc2ccccc2)[C@@H](C)[C@]1(C)CCCOCC1CC1 (relative stereo) [Example 4, 3-[3-(cycloprolmethoxy)propyl]-2,3,4-trimethyl-1-(phenylmethyl)piperidine] | – | 0.0037 ± 0.0004 | minimal effective dose [3]: 167 µmol/kg; effect on stereotypic behavior [4]: did not affect stereotypic behavior |
| C=CCOCCC[C@]1(C)[C@H](C)CCN(C)[C@H]1C (relative stereo) [Example 6] | 89 | 0.559 ± 0.064 | – |
| C#CCOCCC[C@]1(C)[C@H](C)CCN(C)[C@H]1C (relative stereo) [Example 7] | 76 | – | – |
| C=CCOCC[C@]1(C)[C@H](C)CCN(Cc2ccccc2)[C@H]1C (relative stereo) [Example 9] | 99 | 0.3 ± 0.065 | – |
| COCCC[C@]1(C)[C@H](C)CCN(C)[C@H]1C (relative stereo) [Example 13, 3-(3-methoxypropyl)-1,2,3,4-tetramethylpiperidine] | – | 7.67 | – |

The next lines start with results.

| inhibition at 10 µM (sigma receptors [2]; 37° C., 150 min) [%] | Ki (sigma receptors [2]; [5]) [µM] | SMILES | further results |
| --- | --- | --- | --- |
| – | 0.005 ± 0.0002 | C[C@@H]1CCN(C)[C@@H](C)[C@@H]1CCCOCC1CC1 (relative stereo) [Example 2c, 3-[3-(cyclopropylmethoxy)propyl]1,2,4-trimethylpiperidine] | – |
| – | 16.7 | C[C@@H]1CCN[C@@H](C)[C@]1(C)CCCO (relative stereo) [Example 3c, 2.3.4-trimethyl-3-piperidinepropanol] | [3H]DTG Percent Inhibition (sigma receptors [1]): 23 percent (%) |
| 99 | 0.045 ± 0.002 | CCCN1CC[C@@H](C)[C@@](C)(CCCOCC2CC2)[C@@H]1C (relative stereo) [Example 3f, 3-[3-(cyclopropylmethoxy)propyl]-2,3,4-trimethyl-1-propylpiperidine] | – |
| 17 | – | CC(C)N1CC[C@@H](C)[C@@](C)(CCCO)[C@@H]1C (relative stereo) [Example 5a, 2,3. 4-trimethyl-l-(1-methylethyl)-3-piperidinepropanol] | [3H]DTG Percent Inhibition (sigma receptors [1]): 30 percent (%) |
| 91 | 0.435 ± 0.017 | CC(C)N1CC[C@@H](C)[C@@](C)(CCCOCC2CC2)[C@@H]1C (relative stereo) [Example 5b, 3-[3-(cyclopropylmethoxy)propyl]-2,3,4-trimethyl-1-(1-methylethyl)piperidine] | – |
| 85 | – | C[C@@H]1CCN(Cc2ccccc2)[C@@H](C)[C@]1(C)CCO (relative stereo) [Example 8b, 2,3,4-trimethyl-1-(phenylmethyl)-3-piperidineethanol] | – |
